Read-outs that look alike come from different tables or passages of the source.

The source of these data is US10155754B2, “Substituted 2-imino-1,3-thiazolidin-4-ones as N-arachidonoylethanolamine cellular uptake inhibitors” (UNIVERSITAT BERN, priority 2014, dated 2018).

The subject of assay [1] is AEA cellular uptake (U937 cells). The assay can be described thus: [3H]-AEA cellular uptake inhibition in U937 cells. The settings on record: Homo sapiens, U-937, U937 cells, final 100 nM AEA with 0.5 nM [3H]-AEA, 15 min at 37° C. The assay is classed as cell-based. In a few lines: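 U937 cells (0.5×10^6 per sample) pre-incubated with compound (100 pM–100 μM, triplicates) for 15 min at 37 °C, then given 100 nM AEA including 0.5 nM [3H]-AEA for 15 min. Filtration, washing and scintillation counting of cell-associated radioactivity; IC50 by four-parameter nonlinear regression.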

The target of the next assay is T1, FAAH (Homo sapiens, UniProt O00519).
T1 construct: endogenous in cells; host or cells: U937 cell homogenate
T1 sequence (O00519 1-579): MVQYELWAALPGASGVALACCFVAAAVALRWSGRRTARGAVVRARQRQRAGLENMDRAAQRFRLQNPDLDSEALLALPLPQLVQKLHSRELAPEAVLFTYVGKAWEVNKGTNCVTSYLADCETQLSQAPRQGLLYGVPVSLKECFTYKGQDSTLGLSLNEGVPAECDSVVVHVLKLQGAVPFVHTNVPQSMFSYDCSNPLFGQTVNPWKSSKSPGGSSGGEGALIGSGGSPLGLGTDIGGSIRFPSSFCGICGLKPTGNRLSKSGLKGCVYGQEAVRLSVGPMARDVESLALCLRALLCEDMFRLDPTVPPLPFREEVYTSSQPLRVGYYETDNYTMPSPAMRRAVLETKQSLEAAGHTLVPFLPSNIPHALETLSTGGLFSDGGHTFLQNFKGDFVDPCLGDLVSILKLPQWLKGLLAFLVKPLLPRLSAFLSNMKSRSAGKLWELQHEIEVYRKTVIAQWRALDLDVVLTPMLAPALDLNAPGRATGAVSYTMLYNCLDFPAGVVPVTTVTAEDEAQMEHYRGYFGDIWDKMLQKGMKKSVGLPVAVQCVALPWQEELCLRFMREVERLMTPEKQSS
The assay can be described thus: FAAH activity: hydrolysis of [3H]-AEA in U937 cell homogenates. Type of assay: biochemical. The settings on record: [3H]-AEA hydrolysis, final 100 nM AEA, read-out: FAAH inhibition IC50. The procedure: Hydrolysis of [^3H]-AEA by FAAH was determined as previously described in cell homogenates of U937 cells (0.18 mg protein) (Omeir et al., 1999, Biochem Biophys Res Commun, 264, 316-20; Mor et al., 2004, J Med Chem, 47, 4998-5008). Protein amounts of cell homogenates corresponded to 0.5×10^6 cells (U937), to assure best possible comparability of IC50 values as used for the AEA cellular uptake assays. URB597 was used as positive control. Protein quantification was performed using a BCA assay (Thermo Scientific). Enzyme activity was assessed by addition of vehicle or compounds in 10 μL DMSO to 490 μL homogenate in 10 mM Tris HCl, 1 mM EDTA, 0.1% (w/v) BSA fatty acid free, pH=8 and incubation for 15 min at 37° C. After, a mixture of AEA plus [ethanolamine-1-^3H]-AEA (0.5 nM) at final 100 nM was added to the homogenates and incubated for 15 min at 37° C. The reaction was stopped by addition of 1 mL ice-cold CHCl3:MeOH (1:1) followed by vigorous vortexing. Phase separation was achieved by centrifugation at 10'000×g at 4° C. for 10 min. Radioactivity of the separated aqueous phase (upper phase) containing [^3H-ethanolamine] or [^3H-glycerol] was measured by liquid scintillation counting on a Tri-Carb 2100 TR liquid scintillation analyzer after addition of 3.5 mL Ultima Gold scintillation cocktail (PerkinElmer Life Sciences). Results are expressed as hydrolysis of tritium substrate in percent of vehicle treated control. IC50 values were calculated by GraphPad®. Data are reported as means of n=3 independent experiments performed in triplicates.

Setting [2] is: read-out: AEA uptake inhibition IC50.

For the compound `O=C1/C(=C/c2ccc3c(c2)OCCO3)S/C(=N\c2ccc(F)cc2)N1c1ccc(F)cc1` [24_B_B, (2Z,5Z)-2-(4-fluorophenylimino)-3-(4-fluorophenyl)-5-((2,3-dihydrobenzo[b][1,4]dioxin-6-yl)methylene)thiazolidin-4-one], the concentration for half-maximal inhibition (IC50) is 170 nM in assay [1] (read-out: AEA uptake IC50) and above 100000 nM on FAAH.

On to `Cc1ccc(N2C(=O)/C(=C/c3ccc4c(c3)OCCO4)S/C2=N\c2ccccc2)cc1` [24_N_A, (2Z,5Z)-5-((2,3-dihydrobenzo[b][1,4]dioxin-6-yl)methylene)-2-(phenylimino)-3-p-tolylthiazolidin-4-one], for which the IC50 was 334 nM in assay [1] (read-out: AEA uptake IC50) and above 100000 nM at FAAH.

With `O=C1/C(=C/c2ccccc2)S/C(=N\Cc2ccccc2)N1c1ccccc1` [23_C_N, (2Z,5Z)-5-benzylidene-2-(benzylimino)-3-phenylthiazolidin-4-one], the half-maximal inhibitory concentration (IC50) in assay [1] (read-out: AEA uptake IC50) was 180 nM; on FAAH it was above 10000 nM.

With `COc1ccc(C/N=C2\S/C(=C\c3ccc4c(c3)OCCO4)C(=O)N2c2ccc(C)cc2)cc1` [24_Q_A, (2Z,5Z)-2-(4-methoxybenzylimino)-5-((2,3-dihydrobenzo[b][1,4]dioxin-6-yl)methylene)-3-p-tolylthiazolidin-4-one], the IC50 in assay [1] (read-out: AEA uptake IC50) is 164 nM; at FAAH, above 100000 nM.

As to `Cc1ccc(/N=C2\S/C(=C\c3ccc4ncsc4c3)C(=O)N2C2CCCCC2)cc1` [32_A_I, (2Z,5Z)-2-(p-tolylimino)-5-((benzo[d]thiazol-6-yl)methylene)-3-cyclohexylthiazolidin-4-one], the IC50 in assay [1] (read-out: AEA uptake IC50) was 341 nM; on FAAH, above 100000 nM.

Consider `O=C1/C(=C/c2ccc3c(c2)OCCO3)S/C(=N\c2ccccc2)N1C1CCCCC1` [24_N_I, (2Z,5Z)-3-cyclohexyl-5-((2,3-dihydrobenzo[b][1,4]dioxin-6-yl)methylene)-2-(phenylimino)thiazolidin-4-one], for which the 50% inhibitory concentration (IC50) in assay [1] (read-out: AEA uptake IC50) is 462 nM; on FAAH, above 100000 nM.

Regarding `O=C1/C(=C/c2ccc3c(c2)OCCO3)S/C(=N\c2ccccc2)N1c1ccccc1` [compound 24, (2Z,5Z)-5-((2,3-dihydrobenzo[b][1,4]dioxin-6-yl)methylene)-3-phenyl-2-(phenylimino)thiazolidin-4-one], the values for the 50% inhibitory concentration (IC50) (in assay [1] (read-out: AEA uptake IC50); at FAAH) were 817 nM and above 100000 nM, respectively.

On to `O=C1/C(=C/c2ccc3c(c2)OCCO3)S/C(=N\Cc2ccc(F)cc2)N1c1ccc(F)cc1` [24_P_B, (2Z,5Z)-2-(4-fluorobenzylimino)-3-(4-fluorophenyl)-5-((2,3-dihydrobenzo[b][1,4]dioxin-6-yl)methylene)thiazolidin-4-one], for which the concentration for half-maximal inhibition (IC50) turned out to be 1040 nM in assay [1] (read-out: AEA uptake IC50) and 11200 nM at FAAH.

For the compound `COc1ccc(/N=C2\S/C(=C\c3ccc(CO)cc3)C(=O)N2c2ccccc2)cc1` [22_F_N, (2Z,5Z)-5-(4-(hydroxymethyl)benzylidene)-2-(4-methoxyphenylimino)-3-phenylthiazolidin-4-one], the IC50 was 135 nM in assay [1] (read-out: AEA uptake IC50) and above 100000 nM on FAAH.

Turning to `Cc1ccc(/N=C2\S/C(=C\c3ccc(CO)cc3)C(=O)N2c2ccc(C)cc2)cc1` [22_A_A, (2Z,5Z)-5-(4-(hydroxymethyl)benzylidene)-2-(p-tolylimino)-3-p-tolylthiazolidin-4-one], the IC50 in assay [1] (read-out: AEA uptake IC50) is 341 nM; at FAAH, above 100000 nM.

`Cc1ccc(/N=C2\S/C(=C\c3ccc4ncsc4c3)C(=O)N2CC(C)C)cc1` [32_A_X, (2Z,5Z)-2-(p-tolylimino)-5-((benzo[d]thiazol-6-yl)methylene)-3-isobutylthiazolidin-4-one]: the 50% inhibitory concentration (IC50) was 327 nM in assay [1] (read-out: AEA uptake IC50) and above 100000 nM on FAAH.

On to `Cc1ccc(/N=C2\S/C(=C\c3ccc4[nH]ccc4c3)C(=O)N2c2ccc(C)cc2)cc1` [03_A_A, (2Z,5Z)-5-((1H-indol-5-yl)methylene)-2-(p-tolylimino)-3-p-tolylthiazolidin-4-one], for which the figures for the concentration for half-maximal inhibition (IC50) (in assay [1] (read-out: AEA uptake IC50); on FAAH) were 315 nM and above 100000 nM, respectively.

Turning to `Cc1ccc(N2C(=O)/C(=C/c3ccc(CO)cc3)S/C2=N\c2ccc(F)cc2)cc1` [22_B_A, (2Z,5Z)-5-(4-(hydroxymethyl)benzylidene)-2-(4-fluorophenylimino)-3-p-tolylthiazolidin-4-one], the IC50 in assay [1] (read-out: AEA uptake IC50) was 386 nM; on FAAH it was above 100000 nM.

Regarding `O=C1/C(=C/c2ccc3[nH]cnc3c2)S/C(=N\c2ccccc2)N1c1ccccc1` [compound 04, (2Z,5Z)-5-((1H-benzo[d]imidazol-5-yl)methylene)-3-phenyl-2-(phenylimino)thiazolidin-4-one], the results for the concentration for half-maximal inhibition (IC50) (in assay [1] (read-out: AEA uptake IC50); at FAAH) were 194 nM and above 100000 nM, respectively.

Consider `Cc1ccc(/N=C2\S/C(=C\c3ccc4[nH]cnc4c3)C(=O)N2c2ccc(C)cc2)cc1` [04_A_A, (2Z,5Z)-5-((1H-benzo[d]imidazol-5-yl)methylene)-2-(p-tolylimino)-3-p-tolylthiazolidin-4-one], for which the half-maximal inhibitory concentration (IC50) was 390 nM in assay [1] (read-out: AEA uptake IC50) and above 100000 nM on FAAH.

Take `O=C1/C(=C/c2ccc(CO)cc2)S/C(=N\CCCc2ccccc2)N1c1ccccc1` [22_K_N, (2Z,5Z)-2-(3-phenylpropylimino)-5-(4-(hydroxymethyl)benzylidene)-3-phenylthiazolidin-4-one]: the IC50 in assay [1] (read-out: AEA uptake IC50) stood at 97 nM; at FAAH it was 6610 nM.

Turning to `O=C1/C(=C/c2ccc3c(c2)OCCO3)S/C(=N\Cc2ccccc2)N1Cc1ccccc1` [24_C_C, (2Z,5Z)-3-benzyl-2-(benzylimino)-5-((2,3-dihydrobenzo[b][1,4]dioxin-7-yl)methylene)thiazolidin-4-one], at FAAH, the IC50 is above 100000 nM.

`O=C1/C(=C/c2ccc3c(c2)OCCO3)S/C(=N\c2ccc(F)cc2)N1C1CCCCC1` [22_B_I]: the IC50 on FAAH is above 100000 nM.

In the case of `O=C1/C(=C/c2ccc3c(c2)OCCO3)S/C(=N\Cc2ccccc2)N1c1ccc(F)cc1` [24_C_B, (2Z,5Z)-2-(benzylimino)-3-(4-fluorophenyl)-5-((2,3-dihydrobenzo[b][1,4]dioxin-7-yl)methylene)thiazolidin-4-one], the IC50 at FAAH was above 100000 nM.

As for `COc1ccc(N2C(=O)/C(=C/c3ccc4c(c3)OCCO4)S/C2=N\Cc2ccccc2)cc1` [24_C_F, (2Z,5Z)-2-(benzylimino)-5-((2,3-dihydrobenzo[b][1,4]dioxin-7-yl)methylene)-3-(4-methoxyphenyl)thiazolidin-4-one], at FAAH, the IC50 is above 100000 nM.

As for `O=C1/C(=C/c2ccc(CO)cc2)S/C(=N\Cc2ccccc2)N1c1ccc(F)cc1` [22_C_B, (2Z,5Z)-5-(4-(hydroxymethyl)benzylidene)-2-(benzylimino)-3-(4-fluorophenyl)thiazolidin-4-one], the IC50 in assay [1] (read-out: AEA uptake IC50) came out at 2170 nM.

Regarding `Cc1ccc(/N=C2\S/C(=C\c3ccc4c(c3)OCCO4)C(=O)N2c2ccc(Cl)cc2)cc1` [24_A_L, (2Z,5Z)-2-(p-tolylimino)-3-(4-chlorophenyl)-5-((2,3-dihydrobenzo[b][1,4]dioxin-6-yl)methylene)thiazolidin-4-one], in assay [1] (read-out: AEA uptake IC50), the IC50 stood at 616 nM.

As for `COc1ccc(/C=C2\S/C(=N\c3ccc(OC)cc3)N(c3ccccc3)C2=O)cc1`, the half-maximal inhibitory concentration (IC50) in assay [1] (setting [2]) is 1740 nM.

`CCCCN1C(=O)/C(=C/c2ccc3[nH]cnc3c2)S/C1=N\c1ccccc1` [drawing 154]: in assay [1] (setting [2]), the IC50 is 557 nM.

Consider `O=C1/C(=C/c2ccc(CO)cc2)S/C(=N\c2ccccc2)N1c1ccccc1` [compound 22, (2Z,5Z)-5-(4-(hydroxymethyl)benzylidene)-3-phenyl-2-(phenylimino)thiazolidin-4-one], for which the IC50 in assay [1] (read-out: AEA uptake IC50) stood at 729 nM.

Regarding `CCCCN1C(=O)/C(=C/c2ccc(CO)cc2)S/C1=N\c1ccccc1` [drawing 158], the 50% inhibitory concentration (IC50) in assay [1] (setting [2]) was found to be 1090 nM.

`Cn1ncc2cc(/C=C3\S/C(=N\c4ccccc4)N(c4ccccc4)C3=O)ccc21` [compound 28, (2Z,5Z)-5-((1-methyl-1H-indazol-5-yl)methylene)-3-phenyl-2-(phenylimino)thiazolidin-4-one]: in assay [1] (read-out: AEA uptake IC50), the IC50 came out at 515 nM.
